Measured values as given in ChEMBL document CHEMBL5584237, “Design, synthesis, biological evaluation, and in silico studies of novel pyridopyridine derivatives as anticancer candidates targeting FMS kinase” (Eur J Med Chem, 2024).
One block for each compound: values may come before it.

Assays:
[1] = molecular target: T1, Macrophage colony-stimulating factor 1 receptor (Homo sapiens, UniProt P07333); assay: Inhibition of FMS (unknown origin) using myelin basic protein as substrate measured after 40 mins in presence of [gamma-33P]-ATP by scintillation counting method
[2] = system: HepG2; assay: cells; conditions: Homo sapiens, HepG2, 48 h
Description: Antiproliferative activity against human HepG2 cells assessed as cell growth inhibition measured after 48 hrs by MTT assay

[3] = Cytotoxicity against human HS27 cells assessed as reduction in cell growth measured after 48 hrs by MTT assay; format: toxicity, cell-based
[4] = Cytotoxicity against human WI-38 cells assessed as reduction in cell growth measured after 48 hrs by MTT assay; format: toxicity, cell-based
[5] = system: Hep 3B2; assay: cells; conditions: Homo sapiens, Hep3B, 48 h
[6] = molecular target: T1, Macrophage colony-stimulating factor 1 receptor; assay: Inhibition of NanoLuc-fused FMS (unknown origin) transfected in HEK293 cells by NanoBRET assay; format: cell-based
[7] = molecular target: Voltage-gated inwardly rectifying potassium channel KCNH2 (Homo sapiens, UniProt Q12809); assay: Inhibition of fluorescence tracer red binding to human ERG measured after 3 hrs by fluorescence polarization assay
[8] = system: HCT-116; assay: Antiproliferative activity against human HCT-116 cells assessed as cell growth inhibition; format: functional
[9] = system: MDA-MB-231; assay: Antiproliferative activity against human MDA-MB-231 cells assessed as cell growth inhibition; format: functional
[10] = system: RXF 393; assay: Antiproliferative activity against human RXF 393 cells assessed as cell growth inhibition; format: functional
[11] = system: COLO 205; assay: Antiproliferative activity against human COLO 205 cells assessed as cell growth inhibition; format: functional
[12] = system: Hs-578T; assay: Antiproliferative activity against human Hs-578T cells assessed as cell growth inhibition; format: functional
[13] = system: PC-3; assay: Antiproliferative activity against human PC-3 cells assessed as cell growth inhibition; format: functional
[14] = system: MCF7; assay: Antiproliferative activity against human MCF7 cells assessed as cell growth inhibition; format: functional
[15] = system: SF-539; assay: Antiproliferative activity against human SF-539 cells assessed as cell growth inhibition; format: functional
[16] = system: SR; assay: Antiproliferative activity against human SR cells assessed as cell growth inhibition; format: functional
[17] = system: CCRF-CEM; assay: Antiproliferative activity against human CCRF-CEM cells assessed as cell growth inhibition; format: functional
[18] = system: OVCAR-3; assay: Antiproliferative activity against human OVCAR-3 cells assessed as cell growth inhibition; format: functional
[19] = system: LOX IMVI; assay: Antiproliferative activity against human LOX IMVI cells assessed as cell growth inhibition; format: functional
[20] = system: SF-295; assay: Antiproliferative activity against human SF-295 cells assessed as cell growth inhibition; format: functional
[21] = system: MOLT-4; assay: Antiproliferative activity against human MOLT-4 cells assessed as cell growth inhibition; format: functional
[22] = system: CAKI-1; assay: Antiproliferative activity against human CAKI-1 cells assessed as cell growth inhibition; format: functional
[23] = system: M14; assay: Antiproliferative activity against human M14 cells assessed as cell growth inhibition; format: functional
[24] = system: MDA-MB-435; assay: Antiproliferative activity against human MDA-MB-435 cells assessed as cell growth inhibition; format: functional
[25] = system: MDA-MB-468; assay: Antiproliferative activity against human MDA-MB-468 cells assessed as cell growth inhibition; format: functional
[26] = system: HT-29; assay: Antiproliferative activity against human HT-29 cells assessed as cell growth inhibition; format: functional
[27] = system: Malme-3M; assay: Antiproliferative activity against human Malme-3M cells assessed as cell growth inhibition; format: functional
[28] = system: HCT-15; assay: Antiproliferative activity against human HCT-15 cells assessed as cell growth inhibition; format: functional
[29] = system: SW-620; assay: Antiproliferative activity against human SW-620 cells assessed as cell growth inhibition; format: functional
[30] = system: A549; assay: Antiproliferative activity against human A549 cells assessed as cell growth inhibition; format: functional
[31] = system: BMDM; assay: Inhibition of CSF-1-induced C57BL6 mouse BMDM cell growth preincubated for 1 hr followed by CSF-1 addition and measured after 5 hrs by alamar blue assay
[32] = system: DU-145; assay: Antiproliferative activity against human DU-145 cells assessed as cell growth inhibition; format: functional
[33] = system: OVCAR-4; assay: Antiproliferative activity against human OVCAR-4 cells assessed as cell growth inhibition; format: functional
[34] = system: SK-MEL-28; assay: Antiproliferative activity against human SK-MEL-28 cells assessed as cell growth inhibition; format: functional
[35] = system: NCI-H460; assay: Antiproliferative activity against human NCI-H460 cells assessed as cell growth inhibition; format: functional
[36] = system: K562; assay: Antiproliferative activity against human K562 cells assessed as cell growth inhibition; format: functional
[37] = system: SN12C; assay: Antiproliferative activity against human SN12C cells assessed as cell growth inhibition; format: functional
[38] = system: SNB-75; assay: Antiproliferative activity against human SNB-75 cells assessed as cell growth inhibition; format: functional
[39] = system: 786-0; assay: Antiproliferative activity against human 786-0 cells assessed as cell growth inhibition; format: functional
[40] = system: Hep 3B2; assay: Antiproliferative activity against human Hep3B cells assessed as cell growth inhibition at 10 uM measured after 48 hrs by MTT assay relative to control; format: functional; conditions: read-out: GI

T1 sequence (P07333 whole entry): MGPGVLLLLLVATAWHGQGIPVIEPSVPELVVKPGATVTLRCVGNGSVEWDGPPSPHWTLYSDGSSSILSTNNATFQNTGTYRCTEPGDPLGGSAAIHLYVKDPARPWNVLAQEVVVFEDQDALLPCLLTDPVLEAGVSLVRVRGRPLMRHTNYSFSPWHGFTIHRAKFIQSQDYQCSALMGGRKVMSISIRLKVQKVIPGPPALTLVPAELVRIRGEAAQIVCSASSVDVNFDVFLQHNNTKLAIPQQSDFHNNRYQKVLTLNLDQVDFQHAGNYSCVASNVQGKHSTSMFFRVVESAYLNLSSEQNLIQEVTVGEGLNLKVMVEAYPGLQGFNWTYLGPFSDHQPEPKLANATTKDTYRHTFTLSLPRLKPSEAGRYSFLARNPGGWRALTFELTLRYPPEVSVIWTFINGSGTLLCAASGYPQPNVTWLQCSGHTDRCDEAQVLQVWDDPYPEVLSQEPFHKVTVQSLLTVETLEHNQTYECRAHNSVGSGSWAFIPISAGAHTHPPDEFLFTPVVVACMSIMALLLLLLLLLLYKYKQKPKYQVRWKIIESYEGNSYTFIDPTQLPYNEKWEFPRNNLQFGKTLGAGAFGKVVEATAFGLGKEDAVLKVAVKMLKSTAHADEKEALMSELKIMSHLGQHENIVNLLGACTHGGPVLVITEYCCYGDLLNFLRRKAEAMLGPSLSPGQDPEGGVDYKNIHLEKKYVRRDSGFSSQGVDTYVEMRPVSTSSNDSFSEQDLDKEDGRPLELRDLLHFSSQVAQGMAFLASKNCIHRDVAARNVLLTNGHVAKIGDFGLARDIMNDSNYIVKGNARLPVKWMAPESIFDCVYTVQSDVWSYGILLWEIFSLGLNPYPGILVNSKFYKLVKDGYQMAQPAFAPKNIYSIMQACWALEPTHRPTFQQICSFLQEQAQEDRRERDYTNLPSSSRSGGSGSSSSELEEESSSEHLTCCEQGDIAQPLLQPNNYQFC
Sequence of Voltage-gated inwardly rectifying potassium channel KCNH2 (Q12809 whole entry): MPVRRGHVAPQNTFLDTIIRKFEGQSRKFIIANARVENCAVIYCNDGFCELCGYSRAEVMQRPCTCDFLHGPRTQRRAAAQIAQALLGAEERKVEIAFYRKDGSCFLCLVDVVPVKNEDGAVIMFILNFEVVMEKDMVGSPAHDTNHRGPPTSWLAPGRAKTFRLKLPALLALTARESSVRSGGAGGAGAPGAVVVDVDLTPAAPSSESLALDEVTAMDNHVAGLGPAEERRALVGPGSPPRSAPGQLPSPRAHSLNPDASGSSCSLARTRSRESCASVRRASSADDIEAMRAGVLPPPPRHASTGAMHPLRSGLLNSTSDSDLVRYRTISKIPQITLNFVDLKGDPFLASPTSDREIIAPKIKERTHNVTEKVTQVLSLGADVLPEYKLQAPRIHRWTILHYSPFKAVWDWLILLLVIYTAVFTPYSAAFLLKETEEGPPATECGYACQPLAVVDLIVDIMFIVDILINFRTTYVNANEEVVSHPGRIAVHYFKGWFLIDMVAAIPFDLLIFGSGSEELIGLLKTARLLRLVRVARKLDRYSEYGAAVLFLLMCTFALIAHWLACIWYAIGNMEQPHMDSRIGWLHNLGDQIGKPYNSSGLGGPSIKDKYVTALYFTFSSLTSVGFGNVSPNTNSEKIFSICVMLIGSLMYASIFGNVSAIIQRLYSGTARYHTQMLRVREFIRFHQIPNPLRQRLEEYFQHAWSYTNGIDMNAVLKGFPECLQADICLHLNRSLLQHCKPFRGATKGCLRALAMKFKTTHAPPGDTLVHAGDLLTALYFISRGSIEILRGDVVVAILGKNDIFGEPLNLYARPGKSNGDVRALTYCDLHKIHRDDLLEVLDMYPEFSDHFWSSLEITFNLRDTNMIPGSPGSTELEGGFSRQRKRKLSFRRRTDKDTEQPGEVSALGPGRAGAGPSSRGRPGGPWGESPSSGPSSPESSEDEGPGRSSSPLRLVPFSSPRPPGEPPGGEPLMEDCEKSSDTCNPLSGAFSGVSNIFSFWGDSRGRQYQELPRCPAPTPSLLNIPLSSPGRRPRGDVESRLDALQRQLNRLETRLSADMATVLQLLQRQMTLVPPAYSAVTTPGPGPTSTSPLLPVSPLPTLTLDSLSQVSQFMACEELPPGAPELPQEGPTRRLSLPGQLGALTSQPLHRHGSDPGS

- IC50 ([1]; read-out: IC50): 901 nM
Structure (SMILES): CC(C)NC(=O)c1cc(-c2ccc(NC(=O)Nc3ccc(N4CCOCC4)c(C(F)(F)F)c3)cc2)nc2cccnc12

- IC50 ([1]; read-out: IC50): 743 nM
Structure (SMILES): CNC(=O)c1cc(-c2ccc(NC(=O)Nc3ccc(N4CCNCC4)c(C(F)(F)F)c3)cc2)nc2cccnc12

- IC50 [6]: 563 nM
Structure (SMILES): CNC(=O)c1cc(-c2ccc(NC(=O)Nc3ccc(N4CCN(C)CC4)c(C(F)(F)F)c3)cc2)nc2cccnc12
- IC50 [7]: 95900 nM

- IC50 [2]: 870 nM
- IC50 [5]: 810 nM
- IC50 ([1]; read-out: IC50): 788 nM
Structure (SMILES): C=CC(=O)N1CCN(c2ccc(NC(=O)Nc3ccc(-c4cc(C(=O)NC(C)C)c5ncccc5n4)cc3)cc2C(F)(F)F)CC1
- IC50 at 48 h [3]: 8100 nM
- IC50 at 48 h [4]: 15800 nM

- IC50 [2]: 920 nM
- IC50 [5]: 850 nM
- IC50 ([1]; read-out: IC50): 852 nM
Structure (SMILES): CC(C)NC(=O)c1cc(-c2ccc(NC(=O)Nc3ccc(N4CCNCC4)c(C(F)(F)F)c3)cc2)nc2cccnc12
- IC50 at 48 h [3]: 9100 nM
- IC50 at 48 h [4]: 18600 nM

- IC50 [2]: 800 nM
- IC50 [5]: 1760 nM
- IC50 ([1]; read-out: IC50): 797 nM
- IC50 ([1]; read-out: pIC50 (converted)): 813 nM
Structure (SMILES): CC(C)NC(=O)c1cc(-c2ccc(NC(=O)Nc3ccc(N4CCN(C)CC4)c(C(F)(F)F)c3)cc2)nc2cccnc12
- IC50 at 48 h [3]: 8000 nM
- IC50 at 48 h [4]: 18300 nM

Second part, the compound before the results:

Structure (SMILES): CNC(=O)c1cc(-c2ccc(NC(=O)Nc3ccc(N4CCOCC4)c(C(F)(F)F)c3)cc2)nc2cccnc12
- IC50 [2]: 1270 nM
- IC50 at 48 h [3]: 11600 nM
- IC50 at 48 h [4]: > 20000 nM
- IC50 [5]: 1890 nM
- IC50 ([1]; read-out: IC50): 134 nM

Structure (SMILES): C=CC(=O)N1CCN(c2ccc(NC(=O)Nc3ccc(-c4cc(C(=O)NC)c5ncccc5n4)cc3)cc2C(F)(F)F)CC1
- IC50 ([1]; read-out: IC50): 196 nM

Structure (SMILES): CCN1CCN(c2ccc(NC(=O)Nc3ccc(-c4cc(C(=O)NC)c5ncccc5n4)cc3)cc2C(F)(F)F)CC1
- TGI [8]: 4830 nM
- TGI [9]: 5250 nM
- IC50 [6]: 1350 nM
- GI50 [10]: 500 nM
- TGI [10]: 1660 nM
- TGI [11]: 14200 nM
- TGI [12]: 6880 nM
- TGI [13]: 6030 nM
- GI50 [14]: 290 nM
- TGI [14]: 610 nM
- GI50 [15]: 2300 nM
- TGI [15]: 4570 nM
- GI50 [16]: 670 nM
- TGI [16]: 18000 nM
- GI50 [17]: 460 nM
- TGI [17]: 1270 nM
- TGI [18]: 5060 nM
- GI50 [19]: 670 nM
- TGI [19]: 2660 nM
- TGI [20]: 4470 nM
- GI50 [21]: 690 nM
- TGI [21]: 18000 nM
- TGI [22]: 5600 nM
- GI50 [23]: 400 nM
- TGI [23]: 1050 nM
- GI50 [24]: 270 nM
- TGI [24]: 560 nM
- IC50 at 48 h [3]: 8800 nM
- IC50 at 48 h [4]: 16700 nM
- TGI [25]: 5030 nM
- GI50 [26]: 530 nM
- TGI [26]: 2110 nM
- GI50 [27]: 290 nM
- TGI [27]: 530 nM
- GI50 [28]: 330 nM
- TGI [28]: 700 nM
- GI50 [29]: 310 nM
- TGI [29]: 620 nM
- GI50 [30]: 470 nM
- TGI [30]: 13000 nM
- IC50 [31]: 167 nM
- TGI [32]: 4900 nM
- TGI [33]: 5630 nM
- GI50 [34]: 320 nM
- TGI [34]: 580 nM
- GI50 [35]: 660 nM
- TGI [35]: 2930 nM
- GI50 [36]: 660 nM
- TGI [36]: 18000 nM
- TGI [37]: 5300 nM
- IC50 [7]: 83400 nM
- GI50 [38]: 840 nM
- TGI [38]: 3820 nM
- GI50 [39]: 300 nM
- TGI [39]: 580 nM

Structure (SMILES): CNC(=O)c1cc(Oc2ccc(NC(=O)Nc3ccc(Cl)c(C(F)(F)F)c3)cc2)ccn1 [SORAFENIB]
- GI50 [9]: 1260 nM
- GI50 [10]: 3160 nM
- GI50 [11]: 2000 nM
- GI50 [13]: 2000 nM
- GI50 [14]: 2510 nM
- TGI [14]: 7940 nM
- GI50 [16]: 3160 nM
- GI50 [17]: 2000 nM
- inhibition of growth at 10 µM [40]: 75%
- GI50 [18]: 3160 nM
- GI50 [21]: 3160 nM
- TGI [21]: 100000 nM
- GI50 [22]: 3160 nM
- GI50 [23]: 2000 nM
- IC50 at 48 h [3]: 8300 nM
- GI50 [26]: 2000 nM
- GI50 [27]: 2000 nM
- GI50 [28]: 2510 nM
- GI50 [29]: 2510 nM
- GI50 [30]: 3160 nM
- GI50 [32]: 3160 nM
- GI50 [33]: 3160 nM
- GI50 [34]: 2510 nM
- GI50 [35]: 2510 nM
- GI50 [36]: 3160 nM
- GI50 [37]: 2510 nM
- GI50 [38]: 3160 nM
- GI50 [39]: 3160 nM

Structure (SMILES): CC(C)NC(=O)c1cc(-c2ccc(NC(=O)Nc3ccc(F)c(C(F)(F)F)c3)cc2)nc2cccnc12
- inhibition of growth at 10 µM [40]: 84.8%
